Literature values as cited in publication PMC11859340, “The Therapeutic Potential of Spirooxindoles in Cancer: A Focus on p53–MDM2 Modulation” (Pharmaceuticals, 2025).
Read-outs that look alike come from different tables or passages of the source.

Tests used:
MCF7 (breast) [1] = tested on: MCF7 (breast); parameters: method as in PMID 29302672; conditions: at 10 μM, CCK-8
A549 (lung) [2] = tested on: A549 (lung); parameters: method as in PMID 26883465; conditions: MTT; read-out: IC50 against A549
HCT116 (colon) [3] = tested on: HCT116 (colon); parameters: method as in PMID 26883465; conditions: MTT; read-out: IC50 against HCT116
HCT116 (p53^−/−) [4] = tested on: HCT116 (p53^−/−); parameters: method as in PMID 24268795; conditions: read-out: GI50 against HCT116 (p53^−/−)
HCT116 (colon) [5] = tested on: HCT116 (colon); parameters: method as in PMID 28797774; conditions: CCK-8; read-out: IC50 against HCT116
HCT116 (colon) [6] = tested on: HCT116 (colon); parameters: method as in PMID 29302672; conditions: at 10 μM, CCK-8
MDA-MB-231 (breast) [7] = tested on: MDA-MB-231 (breast); parameters: method as in PMID 26883465; conditions: MTT; read-out: IC50 against MDA-MB-231
A549 (lung) [8] = tested on: A549 (lung); parameters: method as in PMID 29302672; conditions: at 10 μM, CCK-8
MD-MB-231 = tested on: MD-MB-231; parameters: method as in PMID 25618595; conditions: MTT; read-out: IC50 against MD-MB-231
[9] = tested on: HepG2 (hepatocellular wild p53 type); parameters: method as in PMID 24268795; conditions: read-out: GI50 against HepG2
MCF7 = tested on: MCF7; parameters: method as in PMID 25618595; conditions: MTT; read-out: IC50 against MCF7
lung A549 = tested on: lung A549; parameters: method as in PMID 31047751; conditions: CCK-8
breast MCF7 = tested on: breast MCF7; parameters: method as in PMID 31047751; conditions: CCK-8
MCF7 (breast) [10] = tested on: MCF7 (breast); parameters: method as in PMID 28797774; conditions: CCK-8; read-out: IC50 against MCF7
A549 (lung) [11] = tested on: A549 (lung); parameters: method as in PMID 28797774; conditions: CCK-8; read-out: IC50 against A549
colon HCT116 = tested on: colon HCT116; parameters: method as in PMID 31047751; conditions: at 10 μM, CCK-8
MCF7 “wild p53” = tested on: MCF7 “wild p53”; parameters: method as in PMID 37731691; conditions: MTT; read-out: IC50 against MCF7
MCF 10A = tested on: MCF 10A; parameters: method as in PMID 37731691; conditions: MTT; read-out: IC50 against MCF 10A
MDA-MB-231 “mutant p53” = tested on: MDA-MB-231 “mutant p53”; parameters: method as in PMID 37731691; conditions: MTT; read-out: IC50 against MDA-MB-231
HCT116 (p53^−/−) [12] = tested on: HCT116 (p53^−/−); parameters: method as in doi:10.1039/C5MD00450K; conditions: read-out: GI50 against HCT116 (p53^−/−)
HCT116 (p53^+/+) [13] = tested on: HCT116 (p53^+/+); parameters: method as in doi:10.1039/C5MD00450K; conditions: read-out: GI50 against HCT116 (p53^+/+)
[14] = tested on: SW620 (colon, mutant p53); parameters: method as in doi:10.1039/C5MD00450K; conditions: read-out: GI50 against SW620
[15] = tested on: HepG2 (liver, wild p53 type); parameters: method as in doi:10.1039/C5MD00450K; conditions: read-out: GI50 against HepG2
PC3 (prostate) = tested on: PC3 (prostate); parameters: method as in PMID 36174446; conditions: MTT; read-out: IC50 against PC3
MDM2 = target: MDM2; parameters: method as in PMID 36174446; conditions: read-out: KD against MDM2
A549 (lung) [16] = tested on: A549 (lung); parameters: method as in PMID 36174446; conditions: MTT; read-out: IC50 against A549
MDA-MB-231 (breast) [17] = tested on: MDA-MB-231 (breast); parameters: method as in PMID 36174446; conditions: MTT; read-out: IC50 against MDA-MB-231
HCT-116 (colon) = tested on: HCT-116 (colon); parameters: method as in PMID 36174446; conditions: MTT; read-out: IC50 against HCT-116
HCT116 (p53^+/+) [18] = tested on: HCT116 (p53^+/+); parameters: method as in PMID 24268795; conditions: read-out: GI50 against HCT116 (p53^+/+)
SW620 (mutant p53) = tested on: SW620 (mutant p53); parameters: method as in PMID 24268795; conditions: read-out: GI50 against SW620
HCT116 p53^−/− = tested on: HCT116 p53^−/−; parameters: method as in PMID 28800455; conditions: read-out: IC50 against HCT116 p53^−/−
HCT116 p53^+/+ = tested on: HCT116 p53^+/+; parameters: method as in PMID 28800455; conditions: read-out: IC50 against HCT116 p53^+/+
neuroblastoma = tested on: neuroblastoma; parameters: method as in PMID 29416773; conditions: oral 50 mg/kg body weight for 50 days, 4 days on and 2 days off

In the case of `COc1ccc(C2=N[C@@H](c3ccc(Cl)cc3)[C@@H](c3ccc(Cl)cc3)N2C(=O)N2CCNC(=O)C2)c(OC(C)C)c1` [nutlin-3, reference compound], the “% inhibition, MCF7” value (MCF7 (breast) [1]) is listed as 33.1%, the IC50 (A549 (lung) [2]) is listed as 2.22 µM and the IC50 (HCT116 (colon) [3]) is listed as 1.16 µM. For the same compound, the GI50 (HCT116 (p53^−/−) [4]) was 52.3 ± 1.15 µM, the IC50 (HCT116 (colon) [5]) was 14.9 ± 0.6 µM and the “% inhibition, HCT116” value (HCT116 (colon) [6]) was 42.9%. For the same compound, the IC50 (MDA-MB-231 (breast) [7]) was 4.68 µM, the “% inhibition, A549” value (A549 (lung) [8]) was 42.9% and the IC50 (MD-MB-231) was 23.5 µM. For the same compound, the GI50 [9] was 51.3 ± 1.04 µM, the IC50 (MCF7) was 11.6 µM and the IC50 (lung A549; read-out: IC50 against A549) was 2.4 µM. For the same compound, the “% inhibition, A549” value (lung A549; at 10 μM) was 47.0%, the IC50 (breast MCF7; read-out: IC50 against MCF7) was 12.1 µM and the “% inhibition, MCF7” value (breast MCF7; at 10 μM) was 32.8%. The IC50 (MCF7 (breast) [10]) was 28.4 ± 2.5 µM, the IC50 (A549 (lung) [11]) was 10 ± 0.8 µM and the “% inhibition, HCT116” value (colon HCT116) was 64.4%.
For `O=C1C=CC(OCc2cn(CCN3C(=O)[C@]4(c5ccc(Br)cc53)[C@@H](c3ccccc3)C(c3ccccc3)=NN4c3ccccc3)nn2)(c2cc(=O)c3c(O)cc(O)cc3o2)C=C1` [105 (X = (CH2)2)], the IC50 (MCF7 “wild p53”) is given as 2.92 µM, the IC50 (MCF 10A) is given as 4.56 µM and the IC50 (MDA-MB-231 “mutant p53”) is given as 1.08 µM.
In the case of `COC(=O)C[C@@H]1CS[C@]2(C(=O)Nc3cccc(Br)c32)[C@H](c2ccc(Br)cc2)[C@H]1C=O` [136 (R = 4-Br, R’ = 4-BrC6H4)], the IC50 (A549 (lung) [2]) is given as 1.67 µM, the IC50 (HCT116 (colon) [3]) is given as 1.57 µM and the IC50 (MDA-MB-231 (breast) [7]) is given as 3.55 µM.
For `O=C1Nc2ccc(Br)cc2[C@]12ON=C(c1cccc(Cl)c1)N2c1cccc(Cl)c1` [110 (R^1 = 5-Br, R^2 = 3-Cl, R^3 = 3-Cl)], the GI50 (HCT116 (p53^−/−) [12]) is given as 2.9 ± 0.2 µM, the GI50 (HCT116 (p53^+/+) [13]) is given as 2 µM and the GI50 [14] is given as 2.1 ± 0.3 µM. For the same compound, the GI50 [15] was 2.1 µM.
For `O=C(c1nc2ccccc2[nH]1)[C@H]1[C@H](c2ccccc2)C2CC3CCCCC3N2[C@]12C(=O)Nc1ccc(Cl)cc12` (stereo partly shown) [compound 38], the IC50 (PC3 (prostate)) is given as 3.4 ± 0.3 µM, the Kd (MDM2) is given as 7.94 µM and the IC50 (A549 (lung) [16]) is given as 7.8 ± 0.3 µM. For the same compound, the IC50 (MDA-MB-231 (breast) [17]) was 2.4 ± 0.2 µM and the IC50 (HCT-116 (colon)) was 7.2 ± 0.3 µM.
In the case of `Cc1ccc(C2=NO[C@@]3(C(=O)Nc4cc(Cl)ccc43)[C@@H]2c2ccccc2)cc1`, the GI50 (HCT116 (p53^+/+) [18]) is given as 26.6 ± 1.07 µM, the GI50 (HCT116 (p53^−/−) [4]) is given as 30.6 ± 1.12 µM and the GI50 [9] is given as 29.1 ± 1.09 µM. The GI50 (SW620 (mutant p53)) was 31.6 ± 1.05 µM.
In the case of `O=C1Nc2ccc(Br)cc2[C@]12[C@@H](c1ccccc1)C(c1ccccc1)=NN2c1ccccc1` [97 (R = 5-Br, R^1 = R^3 = H, R^2 = Ph)], the IC50 (HCT116 p53^−/−) is given as 14.2 ± 0.8 µM and the IC50 (HCT116 p53^+/+) is given as 13.1 ± 1 µM.
In the case of `CC1(C)CCC2(CC1)N[C@@H](C(=O)N[C@@H]1CC[C@@H](C(N)=O)OC1)[C@H](c1ccnc(Cl)c1F)[C@]21C(=O)Nc2cc(Cl)ccc21` [Milademetan], the “tumor growth and survival” value (neuroblastoma) is listed as “tumor growth inhibition and extended survival”.
